Experimental findings from ChEMBL document CHEMBL2029202, “Towards a KCC2 blocker pharmacophore model” (Bioorg Med Chem Lett, 2012) are described below.

The target in this experiment is T1, Solute carrier family 12 member 5 (Rattus norvegicus, UniProt Q63633).
T1 sequence (Q63633 whole entry): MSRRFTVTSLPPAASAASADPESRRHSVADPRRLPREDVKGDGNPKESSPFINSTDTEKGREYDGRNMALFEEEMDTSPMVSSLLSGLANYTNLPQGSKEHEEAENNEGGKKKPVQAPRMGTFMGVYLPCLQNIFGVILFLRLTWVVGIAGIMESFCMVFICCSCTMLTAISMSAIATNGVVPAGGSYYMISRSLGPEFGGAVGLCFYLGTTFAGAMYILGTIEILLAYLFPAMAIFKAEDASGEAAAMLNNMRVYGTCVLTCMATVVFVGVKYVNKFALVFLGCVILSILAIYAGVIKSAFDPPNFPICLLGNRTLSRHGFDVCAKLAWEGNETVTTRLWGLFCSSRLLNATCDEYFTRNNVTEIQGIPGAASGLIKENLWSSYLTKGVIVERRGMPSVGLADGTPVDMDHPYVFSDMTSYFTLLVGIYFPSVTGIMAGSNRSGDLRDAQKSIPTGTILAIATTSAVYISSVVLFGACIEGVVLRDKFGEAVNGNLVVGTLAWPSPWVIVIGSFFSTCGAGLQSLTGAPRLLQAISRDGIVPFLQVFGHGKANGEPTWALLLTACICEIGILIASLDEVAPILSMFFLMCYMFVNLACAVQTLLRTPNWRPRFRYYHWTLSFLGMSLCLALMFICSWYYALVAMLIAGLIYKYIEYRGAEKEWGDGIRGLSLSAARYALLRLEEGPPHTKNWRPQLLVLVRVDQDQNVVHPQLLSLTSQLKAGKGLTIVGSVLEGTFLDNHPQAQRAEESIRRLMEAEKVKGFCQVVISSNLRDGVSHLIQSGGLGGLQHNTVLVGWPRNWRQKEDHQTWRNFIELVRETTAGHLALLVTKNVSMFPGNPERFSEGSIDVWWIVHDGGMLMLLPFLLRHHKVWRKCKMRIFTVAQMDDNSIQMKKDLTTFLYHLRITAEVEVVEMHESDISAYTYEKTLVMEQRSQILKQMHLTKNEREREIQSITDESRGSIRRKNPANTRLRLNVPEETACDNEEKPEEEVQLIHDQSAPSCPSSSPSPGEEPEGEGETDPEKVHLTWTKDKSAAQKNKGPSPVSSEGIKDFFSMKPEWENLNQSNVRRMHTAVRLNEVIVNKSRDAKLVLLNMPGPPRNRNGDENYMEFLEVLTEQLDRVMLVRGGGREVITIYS
The experiment in a line: Inhibition of rat KCC2 expressed in human Sk-Hep cells assessed as […] off Rb+ flux by atomic absorption spectroscopic analysis. It counts as cell-based.

Broadly, the IC50 is the concentration that gives 50% inhibition. With `CC(=O)N1CCC[C@@]1(Cc1ccccc1)C(=O)OCc1ccccc1`, the half-maximal inhibitory concentration (IC50) is 300 nM.
Take `CC(=O)N1CCC[C@]1(Cc1ccccc1)C(=O)OCc1ccccc1`: the IC50 came to 50000 nM.
Turning to `O=C(c1cc2ccccc2oc1=O)N1CCN(Cc2ccccc2)CC1`, the IC50 was 4000 nM.
On to `O=C(c1cc2cc(Br)ccc2oc1=O)N1CCN(Cc2ccccc2)CC1`, for which the IC50 came out at 600 nM.
`CC(=O)N1CCCC1(Cc1ccccc1)C1=N[C@H](c2ccccc2)CO1` (mixture of isomers): the IC50 was 1300 nM.
As for `CC(=O)N1CCCC1(Cc1ccccc1)C(=O)OCc1ccccc1` (racemic), the 50% inhibitory concentration (IC50) worked out at 800 nM.
Consider `CC(=O)N1c2ccccc2CC1(Cc1ccccc1)C(=O)OCc1ccccc1` (racemic), for which the IC50 was 200 nM.
With `CC(=O)N1CCCC1(Cc1ccccc1)C(=O)CCc1ccccc1` (racemic), the concentration for half-maximal inhibition (IC50) was 300 nM.
Turning to `CC(=O)N1CCCC1(Cc1ccc(F)cc1)C(=O)CCc1ccc(F)cc1` (racemic), the 50% inhibitory concentration (IC50) was determined as 200 nM.
With `CC(=O)N1CCCC1(COCc1ccccc1)Cc1ccccc1` (racemic) the figure was 20000 nM.
Consider `CC(=O)N1CCCC1(Cc1ccccc1)c1nc(-c2ccccc2)co1` (racemic), for which the IC50 is 12600 nM.
Turning to `O=C1CCCC2CCC(Cc3ccccc3)(C(=O)OCc3ccccc3)N12` (racemic), the half-maximal inhibitory concentration (IC50) is 1000 nM.
